Article PMC8151276, “An Integrated Approach toward NanoBRET Tracers for Analysis of GPCR Ligand Engagement” (Molecules, 2021)

Assays:
Format in all cases: binding
LTB4R2 = target: T1, LTB4R2 (Homo sapiens, UniProt Q9NPC1); assay: NanoBRET screen HiBiT-LTB4R2 in HEK293; conditions: LTB4R2
T1 construct: purchased Promega (in-house HiBiT-GPCR construct library, NanoBRET)
T1 sequence (Q9NPC1 1-358): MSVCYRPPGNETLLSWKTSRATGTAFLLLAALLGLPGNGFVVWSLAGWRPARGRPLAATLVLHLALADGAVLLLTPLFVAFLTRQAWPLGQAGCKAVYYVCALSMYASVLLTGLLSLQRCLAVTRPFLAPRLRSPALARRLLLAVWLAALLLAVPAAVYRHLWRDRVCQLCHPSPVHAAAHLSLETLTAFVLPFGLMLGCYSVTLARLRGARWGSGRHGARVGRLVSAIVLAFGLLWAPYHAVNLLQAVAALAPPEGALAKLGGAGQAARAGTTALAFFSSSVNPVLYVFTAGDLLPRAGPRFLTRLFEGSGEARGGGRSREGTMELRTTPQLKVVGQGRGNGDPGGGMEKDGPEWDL
Protocol: (§1) Each tracer candidate was screened across the entire library of HiBiT-GPCR constructs using NanoBRET as the detection modality. As depicted in Figure 4A, the specificity of interactions was evaluated through decrease in BRET due to competitive displacement of a bound tracer by excess parental compound. Each tracer was analyzed for binding to each HiBiT-GPCR fusion in the absence and in the presence of competing parental compound. Briefly, HEK293 cells were transfected with HiBiT-GPCR constructs diluted into promoterless DNA to reduce expression and maximize translocation to the cell surface. Each tracer candidate was then screened at concentrations of 1 μM and 0.1 μM across cells expressing these fusions. Cells were treated for 1.5 h with tracer either alone or in the presence of 20 μM competing parental compound (i.e., control). BRET was measured upon addition of purified LgBiT and subsequent complementation with HiBiT genetically fused to a GPCR. The specificity of interactions was assessed through a decrease in BRET signal due to competitive displacement of the bound tracer. To further gauge the robustness of these interactions, the fold response over the control (i.e., BRETtracer/BRETcontrol) was calculated. We chose a 1.5-fold response, which translates to ≥7-fold signal over noise as the minimal threshold required to score an interaction as positive. […]. Below we highlight the screening results obtained for our exemplary fluorescent tracers based on Clozapine, Amitriptyline and AZD1283.
(§2) HiBiT-GPCR DNA constructs were diluted in 10 mM Tris pH 8 to a final concentration of 0.01 μg/μL, arrayed in 96-well plates and stored at −20 °C. For transfection, HEK293 cells were suspended in Opti-MEM (without phenol red) supplemented with 2% fetal bovine serum (Seradigm) and 100 units/mL penicillin–streptomycin (Gibco) at a final concentration of 220,000 cells/mL and dispensed into white 96-well plates at 90 μL/well. Subsequent transfections and screens were carried using an Agilent Bravo Automated Liquid Handling Platform. First, the 96-well HiBiT DNA arrays were diluted 25-fold in Opti-MEM (without serum or phenol red) to a final concentration of 0.0004 μg/μL and 20 μL of the diluted DNAs were transferred into new 96-well plates. Next, promoterless carrier DNA (1 μg/μL) was diluted 25-fold (0.04 μg/μL) and then dispensed into the diluted arrays at 20 μL/well. Following brief mixing, Viafect transfection reagent (Promega) diluted 16-fold into Opti-MEM was dispensed into the plates at 40 μL/well. After mixing by pipetting, plates were incubated for 10 min on the pipetting station deck. The DNA-transfection reagent complexes were then added to plates containing cells. To facilitate the screen, 10 μL of DNA-transfection reagent complexes were added in duplicates to the top 4 and bottom 4 rows, resulting in two identical 48-well arrays per plate. Plates with transfected cells were incubated for 18–20 h at 37 °C/5% CO2. A screen of each tracer across the entire library using two different concentrations requires duplicate plates of transfected cells. Depending on the number of tracers being screened, transfections can be scaled up using the same ratios. The next day, for each tracer, four 20× screening solutions in tracer dilution buffer (Promega) were prepared: two duplicates at final concentration of 20 μM and two duplicates at a final concentration of 2 μM. A competing unmodified compound was added to one of each duplicate at a final concentration of 400 μM. The four resulting solutions were diluted 4-fold in Opti-MEM without serum or phenol red to generate 5× solutions (5 µM and 0.5 µM tracer +/− 100 μM competing compound). To screen the library, a BioTek MultiFlo FX liquid dispenser was used to dispense 22.5 µL of tracer solution to the top 4 rows and 22.5 µL tracer + competing compound solution to the 4 bottom rows. Plates were briefly mixed on an orbital shaker and incubated for 1.5 h at room temperature. […]

CCR9 = target: T2, CCR9 (Homo sapiens, UniProt P51686); assay: NanoBRET screen HiBiT-CCR9 in HEK293; conditions: CCR9
T2 construct: purchased Promega (in-house HiBiT-GPCR construct library, NanoBRET)
T2 sequence (P51686 1-369): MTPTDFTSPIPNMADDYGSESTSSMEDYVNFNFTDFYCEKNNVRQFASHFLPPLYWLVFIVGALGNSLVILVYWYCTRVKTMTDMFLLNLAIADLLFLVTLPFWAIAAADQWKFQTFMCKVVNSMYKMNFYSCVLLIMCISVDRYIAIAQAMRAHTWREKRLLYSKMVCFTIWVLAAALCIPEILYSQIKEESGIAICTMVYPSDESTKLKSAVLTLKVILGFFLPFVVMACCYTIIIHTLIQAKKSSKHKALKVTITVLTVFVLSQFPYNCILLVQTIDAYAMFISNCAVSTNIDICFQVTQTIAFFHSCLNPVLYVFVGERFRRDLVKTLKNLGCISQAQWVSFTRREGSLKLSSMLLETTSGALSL
Protocol: as §1, §2

F2RL2 = target: T3, F2RL2 (Homo sapiens, UniProt O00254); assay: NanoBRET screen HiBiT-F2RL2 in HEK293; conditions: F2RL2
T3 construct: purchased Promega (in-house HiBiT-GPCR construct library, NanoBRET)
T3 sequence (O00254 22-374): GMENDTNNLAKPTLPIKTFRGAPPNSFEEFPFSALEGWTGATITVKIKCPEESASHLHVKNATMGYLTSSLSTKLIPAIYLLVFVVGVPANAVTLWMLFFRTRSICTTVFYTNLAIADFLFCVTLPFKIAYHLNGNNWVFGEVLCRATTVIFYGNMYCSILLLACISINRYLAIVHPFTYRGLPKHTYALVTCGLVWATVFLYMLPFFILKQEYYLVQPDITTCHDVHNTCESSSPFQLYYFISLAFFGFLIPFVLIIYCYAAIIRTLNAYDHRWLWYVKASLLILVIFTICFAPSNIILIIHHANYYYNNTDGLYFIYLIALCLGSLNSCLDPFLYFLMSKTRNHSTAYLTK
Protocol: as §1, §2

Row | Structure (SMILES) | NanoBRET Fold Response (LTB4R2; tracer 0.1μM) | NanoBRET Fold Response (LTB4R2; tracer 1μM) | NanoBRET Fold Response (CCR9; tracer 0.1μM) | NanoBRET Fold Response (CCR9; tracer 1μM) | NanoBRET Fold Response (F2RL2; tracer 0.1μM) | NanoBRET Fold Response (F2RL2; tracer 1μM) | NanoBRET Fold Response (LTB4R2; 0.1μM) | NanoBRET Fold Response (LTB4R2; 1μM) | NanoBRET Fold Response (CCR9; 0.1μM) | NanoBRET Fold Response (CCR9; 1μM) | NanoBRET Fold Response (F2RL2; 0.1μM) | NanoBRET Fold Response (F2RL2; 1μM)
1 | O=C(CCc1ccc2n1[B-](F)(F)[N+]1=C(c3ccc[nH]3)C=CC1=C2)NCc1ccc(C(=O)NCCOCCC(=O)N[C@@H]2CC[C@@]3(O)[C@H]4Cc5ccc(O)c6c5[C@@]3(CCN4CC3CC3)[C@H]2O6)cc1 [Naltrexone-3-NB590] | 0.89 | 1.36 | 0.55 | 0.92 | 1.07 | 1.02 |  |  |  |  |  | 
2 | Cc1cc2c(s1)Nc1ccccc1N=C2N1CCN(CCCNC(=O)CCOCCOCCOCCOCCNC(=O)CCc2ccc3n2[B-](F)(F)[N+]2=C(c4ccc[nH]4)C=CC2=C3)CC1 [Olanzapine-a-2-NB590] | 0.97 | 1.06 | 1.03 | 1.17 | 0.97 | 1.01 |  |  |  |  |  | 
3 | O=C(CCc1ccc2n1[B-](F)(F)[N+]1=C(c3ccc[nH]3)C=CC1=C2)NCc1ccc(C(=O)NCCOCCOCCNCC(O)COc2cccc3ccccc23)cc1 (stereo not drawn) [Propranolol-3-NB590] |  |  |  |  |  |  | 1.01 | 0.96 | 1.08 | 1.00 | 0.99 | 1.03
4 | O=C(CCc1ccc2n1[B-](F)(F)[N+]1=C(c3ccc[nH]3)C=CC1=C2)NCCOCCOCCNC(=O)OCCOCCN1CCN(C2=Nc3ccccc3Sc3ccccc32)CC1 [Quetiapine-a-2-NB590] | 1.09 | 1.04 | 1.05 | 0.96 | 1.06 | 0.89 |  |  |  |  |  | 
5 | Cc1nc2n(c(=O)c1CCN1CCC(c3noc4cc(F)ccc34)CC1)CCCC2OC(=O)NCCOCCOCCOCCOCCNC(=O)CCc1ccc2n1[B-](F)(F)[N+]1=C(c3ccc[nH]3)C=CC1=C2 (stereo not drawn) [Risperidone-2-NB590] | 0.97 | 0.94 | 1.02 | 0.94 | 0.94 | 1.08 |  |  |  |  |  | 
6 | CC(C)N(CC[C@H](c1ccccc1)c1cc(CCNC(=O)CCOCCOCCOCCOCCNC(=O)CCc2ccc3n2[B-](F)(F)[N+]2=C(c4ccc[nH]4)C=CC2=C3)ccc1O)C(C)C [Tolterodine-2-NB590] | 1.00 | 1.22 | 1.12 | 0.95 | 1.02 | 1.04 |  |  |  |  |  | 
7 | CC(C)N(CC[C@H](c1ccccc1)c1cc(CCNC(=O)c2ccc(CNC(=O)CCc3ccc4n3[B-](F)(F)[N+]3=C(c5ccc[nH]5)C=CC3=C4)cc2)ccc1O)C(C)C [Tolterodine-BZ-NB590] | 0.91 | 0.95 | 0.74 | 1.14 | 1.01 | 1.04 |  |  |  |  |  | 
8 | CCCn1c(=O)c2[nH]c(-c3ccc(OCC(=O)NCCNC(=O)CCOCCNC(=O)c4ccc(CNC(=O)CCc5ccc6n5[B-](F)(F)[N+]5=C(c7ccc[nH]7)C=CC5=C6)cc4)cc3)nc2n(CCC)c1=O [XAC-3-NB590] | 0.93 | 0.98 | 0.95 | 1.57 | 0.95 | 1.04 |  |  |  |  |  | 
